From PubChem BioAssay AID256 (DTP/NCI, 2004)
Where “and” joins values, the source holds several entries; their conditions need not be identical. Equal values may be shown once. Toxic doses and inconclusive results are not listed.

Tested on: CD2F1 mice, L1210 leukemia ip, survival T/C
Assay: NCI In Vivo Anticancer Drug Screen. Data for tumor model L1210 Leukemia (intraperitoneal) in CD2F1 (CDF1) mice
Conditions: higher = longer survival
Outline: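 In this screen, transplantable tumors were grown in mice given either the compound or its vehicle. Results were expressed as the treated measurement relative to the control measurement.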

[1] = endpoint: mean survival time, dose: 100.0 mg/kg/injection, schedule: Q04DX002 (ip), vehicle: saline with Tween-80
[2] = endpoint: mean survival time, dose: 200.0 mg/kg/injection, schedule: Q04DX002 (ip), vehicle: saline with Tween-80
[3] = endpoint: mean survival time, dose: 100.0 mg/kg/injection, schedule: Q01DX009 (ip), vehicle: saline with Tween-80
[4] = endpoint: mean survival time, dose: 200.0 mg/kg/injection, schedule: Q01DX009 (ip), vehicle: saline with Tween-80
[5] = endpoint: mean survival time, dose: 100.0 mg/kg/injection, schedule: Q04DX003 (ip), vehicle: saline with Tween-80
[6] = endpoint: mean survival time, dose: 200.0 mg/kg/injection, schedule: Q04DX003 (ip), vehicle: saline with Tween-80
[7] = endpoint: mean survival time, dose: 50.0 mg/kg/injection, schedule: Q01DX009 (ip), vehicle: saline with Tween-80
[8] = endpoint: mean survival time, dose: 400.0 mg/kg/injection, schedule: Q04DX003 (ip), vehicle: saline with Tween-80

In the case of `CCCCCCCCCSCCOC(=S)N(C)C`, the T/C [1] is reported as 93 % of control, the T/C [2] is reported as 93 % of control and the T/C (endpoint: mean survival time, dose: 400.0 mg/kg/injection, schedule: Q04DX002 (ip), vehicle: saline with Tween-80) is reported as 93 % of control.

`Nc1ccc(O)c2ccccc12` was tested, and the T/C (endpoint: mean survival time, dose: 1.5 mg/kg/injection, schedule: Q04DX003 (ip), vehicle: other) was 111 % of control and the T/C (endpoint: mean survival time, dose: 3.0 mg/kg/injection, schedule: Q04DX003 (ip), vehicle: other) was 102 % of control.

For `OCC1OC(Nc2ncnc3snnc23)C(O)C1O` (stereo unspecified), the T/C (endpoint: mean survival time, dose: 200.0 mg/kg/injection, schedule: Q04DX003 (ip), vehicle: saline) was 157 % of control and the T/C (endpoint: mean survival time, dose: 400.0 mg/kg/injection, schedule: Q04DX003 (ip), vehicle: saline) was 173 % of control.

`CC1(C)CC(OP(=O)(OC2CC(C)(C)N(O)C(C)(C)C2)N2CC2)CC(C)(C)N1O` was tested, and the T/C (endpoint: mean survival time, dose: 12.5 mg/kg/injection, schedule: Q01DX009 (ip), vehicle: water) was 102 % of control, the T/C (endpoint: mean survival time, dose: 25.0 mg/kg/injection, schedule: Q01DX009 (ip), vehicle: water) was 113 % of control and 104 % of control and the T/C (endpoint: mean survival time, dose: 50.0 mg/kg/injection, schedule: Q01DX009 (ip), vehicle: water) was 110 % of control. The T/C (endpoint: mean survival time, dose: 100.0 mg/kg/injection, schedule: Q01DX009 (ip), vehicle: water) was 112 % of control.

In the case of `CCOC(=O)N(C)N=NC`, the T/C (endpoint: median survival time, dose: 3.75 mg/kg/injection, schedule: Q01DX005 (ip), vehicle: saline) is reported as 110 % of control, the T/C (endpoint: median survival time, dose: 7.5 mg/kg/injection, schedule: Q01DX005 (ip), vehicle: saline) is reported as 119 % of control and the T/C (endpoint: median survival time, dose: 10.8 mg/kg/injection, schedule: Q01DX005 (ip), vehicle: saline) is reported as 124 % of control. For the same molecule, the T/C (endpoint: median survival time, dose: 50.0 mg/kg/injection, schedule: Q01DX005 (ip), vehicle: saline) was 86 % of control.

`Cc1cc(C)c(S(=O)(=O)Nc2cc(C)ccc2C)c(C)c1` was tested, and the T/C (endpoint: mean survival time, dose: 100.0 mg/kg/injection, schedule: Q01DX001 (ip), vehicle: saline with Tween-80) was 98 % of control, the T/C (endpoint: mean survival time, dose: 200.0 mg/kg/injection, schedule: Q01DX001 (ip), vehicle: saline with Tween-80) was 96 % of control and the T/C (endpoint: mean survival time, dose: 400.0 mg/kg/injection, schedule: Q01DX001 (ip), vehicle: saline with Tween-80) was 102 % of control.

For `Cc1cccc(N)n1`, the T/C (endpoint: mean survival time, dose: 3.13 mg/kg/injection, schedule: Q04DX002 (ip), vehicle: saline) was 94 % of control, the T/C (endpoint: mean survival time, dose: 6.25 mg/kg/injection, schedule: Q04DX002 (ip), vehicle: saline) was 90 % of control and the T/C (endpoint: mean survival time, dose: 12.5 mg/kg/injection, schedule: Q04DX002 (ip), vehicle: saline) was 90 % of control.

With `NC(=O)c1ccc(Cl)c(Cl)c1` the T/C [3] was 103 % of control and the T/C [4] was 103 % of control.

In the case of `CC(=O)OCCC/C(=C\c1ccc(Cl)c(Cl)c1)[N+](=O)[O-]`, the T/C (endpoint: mean survival time, dose: 100.0 mg/kg/injection, schedule: Q01DX001 (ip), vehicle: saline) is reported as 100 % of control.

In the case of `COc1cc(C2CC(C)(O)Oc3cc4c(cc32)OCO4)cc(OC)c1OC` (stereo unspecified), the T/C (endpoint: median survival time, dose: 25.0 mg/kg/injection, schedule: Q01DX005 (ip), vehicle: saline with Tween-80) is reported as 106 % of control, the T/C (endpoint: median survival time, dose: 50.0 mg/kg/injection, schedule: Q01DX005 (ip), vehicle: saline with Tween-80) is reported as 114 % of control and the T/C (endpoint: median survival time, dose: 86.0 mg/kg/injection, schedule: Q01DX005 (ip), vehicle: saline with Tween-80) is reported as 119 % of control. The T/C (endpoint: median survival time, dose: 100.0 mg/kg/injection, schedule: Q01DX005 (ip), vehicle: saline with Tween-80) was 110 % of control, the T/C (endpoint: median survival time, dose: 144.0 mg/kg/injection, schedule: Q01DX005 (ip), vehicle: saline with Tween-80) was 160 % of control and the T/C (endpoint: median survival time, dose: 200.0 mg/kg/injection, schedule: Q01DX005 (ip), vehicle: saline with Tween-80) was 102 % of control. The T/C (endpoint: median survival time, dose: 240.0 mg/kg/injection, schedule: Q01DX005 (ip), vehicle: saline with Tween-80) was 102 % of control.

`O=C(O)C(O)C(O)C(OC1OC(CO)C(O)C(O)C1O)C(O)CO.O=C(O)C(O)C(O)C(OC1OC(CO)C(O)C(O)C1O)C(O)CO.[NH-]C1CCCCC1[NH-].[Pt+2]` (stereo unspecified) was tested, and the T/C (endpoint: median survival time, dose: 3.12 mg/kg/injection, schedule: Q04DX003 (ip), vehicle: saline) was 113 % of control, the T/C (endpoint: median survival time, dose: 6.25 mg/kg/injection, schedule: Q04DX003 (ip), vehicle: saline) was 121 % of control and the T/C (endpoint: median survival time, dose: 12.5 mg/kg/injection, schedule: Q04DX003 (ip), vehicle: saline) was 162 % of control. The T/C (endpoint: median survival time, dose: 25.0 mg/kg/injection, schedule: Q04DX003 (ip), vehicle: saline) was 195 % of control, the T/C (endpoint: median survival time, dose: 50.0 mg/kg/injection, schedule: Q04DX003 (ip), vehicle: saline) was 158 % of control and 365 % of control and the T/C (endpoint: median survival time, dose: 200.0 mg/kg/injection, schedule: Q04DX003 (ip), vehicle: saline) was 119 % of control.

With `Nc1ncnc2nc(C(O)C(O)C(O)C(O)CO)[nH]c12` (stereo unspecified) the T/C (endpoint: median survival time, dose: 12.5 mg/kg/injection, schedule: Q01DX005 (ip), vehicle: distilled water + Tween-80) was 98 % of control, the T/C (endpoint: median survival time, dose: 25.0 mg/kg/injection, schedule: Q01DX005 (ip), vehicle: distilled water + Tween-80) was 98 % of control and the T/C (endpoint: median survival time, dose: 50.0 mg/kg/injection, schedule: Q01DX005 (ip), vehicle: distilled water + Tween-80) was 100 % of control. The T/C (endpoint: median survival time, dose: 100.0 mg/kg/injection, schedule: Q01DX005 (ip), vehicle: distilled water + Tween-80) was 97 % of control and the T/C (endpoint: median survival time, dose: 200.0 mg/kg/injection, schedule: Q01DX005 (ip), vehicle: distilled water + Tween-80) was 98 % of control.

In the case of `CN1C(=O)C=CC1=O` (tested in a mixture with another compound), the T/C (endpoint: mean survival time, dose: 25.0 mg/kg/injection, schedule: Q04DX002 (ip), vehicle: saline with Tween-80) is reported as 103 % of control, the T/C (endpoint: mean survival time, dose: 50.0 mg/kg/injection, schedule: Q04DX002 (ip), vehicle: saline with Tween-80) is reported as 91 % of control and the T/C [1] is reported as 95 % of control. For the same molecule, the T/C [2] was 91 % of control.

`CC(C)C(NC(=O)OC(C)(C)C)C(=O)ON1C(=O)CCC1=O` (stereo unspecified) was tested, and the T/C [5] was 104 % of control and the T/C [6] was 100 % of control.

`N#CC(NCc1ccccc1)c1ccc2c(c1)OCO2` (stereo unspecified) was tested, and the T/C [7] was 98 % of control, the T/C [3] was 90 % of control and the T/C [5] was 99 % of control. The T/C [6] was 108 % of control.

`Nc1n[nH]c(=S)n1-c1ccc(Cl)cc1` was tested, and the T/C (endpoint: mean survival time, dose: 100.0 mg/kg/injection, schedule: Q01DX009 (ip), vehicle: acetone) was 97 % of control, the T/C (endpoint: mean survival time, dose: 200.0 mg/kg/injection, schedule: Q01DX009 (ip), vehicle: acetone) was 101 % of control and the T/C (endpoint: mean survival time, dose: 400.0 mg/kg/injection, schedule: Q01DX009 (ip), vehicle: acetone) was 106 % of control.

With `CCN(CC)CCCNC1=C(Cl)C(=O)c2ccccc2C1=O` the T/C (endpoint: mean survival time, dose: 6.25 mg/kg/injection, schedule: Q01DX009 (ip), vehicle: saline with Tween-80) was 100 % of control, the T/C (endpoint: mean survival time, dose: 12.5 mg/kg/injection, schedule: Q01DX009 (ip), vehicle: saline with Tween-80) was 94 % of control and the T/C (endpoint: mean survival time, dose: 25.0 mg/kg/injection, schedule: Q01DX009 (ip), vehicle: saline with Tween-80) was 103 % of control.

For `Cc1ccc(S(=O)(=O)Nc2ccc(I)cc2)cc1`, the T/C [7] was 94 % of control, the T/C [3] was 97 % of control and the T/C [5] was 92 % of control. The T/C [4] was 95 % of control, the T/C [6] was 94 % of control and the T/C [8] was 86 % of control.

In the case of `Cc1ccccc1OP(=O)(c1ccccc1)c1ccccc1`, the T/C [5] is reported as 100 % of control, the T/C [6] is reported as 105 % of control and the T/C [8] is reported as 110 % of control.

For `O=C(Nc1ccccc1C(=O)O)c1ccccc1`, the T/C (endpoint: mean survival time, dose: 25.0 mg/kg/injection, schedule: Q04DX003 (ip), vehicle: saline with Tween-80) was 106 % of control, the T/C (endpoint: mean survival time, dose: 50.0 mg/kg/injection, schedule: Q04DX003 (ip), vehicle: saline with Tween-80) was 101 % of control and the T/C [5] was 98 % of control and 101 % of control.

In the case of `Fc1ccc2ccnnc2c1`, the T/C (endpoint: mean survival time, dose: 100.0 mg/kg/injection, schedule: Q01DX001 (ip), vehicle: other) is reported as 103 % of control and the T/C (endpoint: mean survival time, dose: 200.0 mg/kg/injection, schedule: Q01DX001 (ip), vehicle: other) is reported as 95 % of control.

With `CC(=O)Nc1ncc2nc(C)c(C)nc2n1` the T/C [7] was 98 % of control.

`O=c1cc[nH]c2cc(Cl)ccc12` was tested, and the T/C (endpoint: mean survival time, dose: 100.0 mg/kg/injection, schedule: Q04DX003 (ip), vehicle: alcohol) was 89 % of control and the T/C (endpoint: mean survival time, dose: 200.0 mg/kg/injection, schedule: Q04DX003 (ip), vehicle: alcohol) was 96 % of control.

In the case of `COc1ccc(C2=NCCc3cc(OC)c(OC)cc32)cc1OC`, the T/C (endpoint: mean survival time, dose: 12.5 mg/kg/injection, schedule: Q01DX009 (ip), vehicle: other) is reported as 90 % of control and the T/C (endpoint: mean survival time, dose: 25.0 mg/kg/injection, schedule: Q01DX009 (ip), vehicle: other) is reported as 92 % of control.

For `Cc1ccc(NC(=S)N2CCCC2)cc1`, the T/C [3] was 97 % of control, the T/C [4] was 91 % of control and the T/C (endpoint: mean survival time, dose: 400.0 mg/kg/injection, schedule: Q01DX009 (ip), vehicle: saline with Tween-80) was 95 % of control.

`CC(C)(C)OC(=O)NC(CO)C(=O)O` (stereo unspecified) was tested, and the T/C [5] was 92 % of control, the T/C [6] was 86 % of control and the T/C [8] was 94 % of control.

`Oc1ccc(SSc2ccc(O)cc2)cc1` was tested, and the T/C (endpoint: mean survival time, dose: 100.0 mg/kg/injection, schedule: Q01DX009 (ip), vehicle: other) was 98 % of control, the T/C (endpoint: mean survival time, dose: 200.0 mg/kg/injection, schedule: Q01DX009 (ip), vehicle: other) was 101 % of control and the T/C (endpoint: mean survival time, dose: 400.0 mg/kg/injection, schedule: Q01DX009 (ip), vehicle: other) was 104 % of control.
